Measured values from US20250360120A1, “METHODS OF TREATMENT OF DRAVET SYNDROME” (Noema Pharma AG, priority 2023, published 2025).

System: Scn1a+/− mice
Assay: Seizure frequency, seizure freedom and time to first seizure (frontal cortex EEG) in Scn1a+/− mice
Format: in vivo
Conditions: for Odds Ratio of seizure freedom (vs Untreated) / Probability of seizure freedom: GLM binomial; for median time to first seizure: Kaplan-Meier, Untreated group 7 days
Method: Heterozygous deletion of Sca1a in mice (Scn1a+/−) recapitulates several core phenotypes of clinical Dravet syndrome, including temperature-dependent and spontaneous seizures, SUDEP, and behavioral abnormalities. […] As such, Scn1a+/−mice are a favourable model to enable translation of novel ASMs with varied mechanism of action to the clinic.
The experiment was conducted to evaluate the effect of Compound I, CTEP and RO6807794 on seizure frequency, seizure freedom and survival in Scn1a+/− mice.
Frontal cortex recordings were selected as representative of the seizure phenomenology on mice experiencing generalized seizures. EEG headmounts were implanted between P20-22 and recordings were initiated for continuous monitoring for a period of approximately 14-days for the NAM group and PAM group. Individual frontal cortex seizure measurements over time were visually explored and summaries across the time course were calculated. • 1. Seizure frequency
Seizure frequency was measured by count of the number of seizures observed each day. The frequency was analyzed using a Chi-square test (all treatments) and Fisher's Exact test (pairwise treatment comparisons). • 2. Seizure freedom
Seizure freedom was measured with a binary (0 or 1) endpoint, where it was recorded as a […] was recorded across the whole study. Seizure freedom was summarized across all animals into a contingency table and analyzed using a generalized linear model (GLM) with a binomial distribution for the errors and a logit link function. The results were presented as probabilities and odds ratios between groups and 95% confidence intervals. The odd ratio described how much more likely it is for an animal to have no seizures (Seizure freedom=1) in a treated group compared to the untreated group. Analyses were performed using GraphPad Prism 9 (contingency table) and SAS 9.4 (binomial model). • 3. Time to first seizure:
Time to first seizure refers the time recorded as the day on which the first seizure occurred (an observed, uncensored observation), or the final day of recording for that animal if on seizure was observed (a censored observation). Time to first seizure was visualized using a Kaplan-Meier plot and analyzed using a Log-rank (Mantel-Cox) test. Analyses were performed using GraphPad Prism 9. • 4. Total seizure burden
Total seizure burden is sum of the seizure frequency across all study days. • 5. Seizure per day
Seizure per day is measured by the total seizure count divided by the number of study days, wherein a seizure count measurement was adjusted by the number of days the animal was in the study.
Time to first seizure and Seizure per day were explored visually and analyzed using analysis of variance (ANOVA). Results were presented as geometric means, ratios of geometric means, confidence intervals and p-values. An additional non-parametric analysis, Kruskal-Wallis, was explored along with Wilcoxon pairwise comparisons to the Untreated group. The data was also analyzed using a generalized linear model (GLM) with a Poisson distribution for the errors and a log link function. The linear predictor described a model suitable for exploring a fixed effect of treatment group.

[1] = 0.3 mg/kg PO every other day for 28-days
[2] = ANOVA on log10 adjusted scale, 0.3 mg/kg PO every other day for 28-days
[3] = Generalized Linear Model on discrete (count) data, 0.3 mg/kg PO every other day for 28-days
[4] = Kruskal-Wallis with Wilcoxon pairwise tests, 0.3 mg/kg PO every other day for 28-days
[5] = exploratory ANOVA on log10 scale, 0.3 mg/kg PO every other day for 28-days
[6] = 0.3 mg/kg PO once daily for 28-days from P10
[7] = 1 mg/kg PO once daily for 28-days from P10
[8] = ANOVA on log10 adjusted scale, 0.3 mg/kg PO once daily for 28-days from P10
[9] = ANOVA on log10 adjusted scale, 1 mg/kg PO once daily for 28-days from P10
[10] = Generalized Linear Model on discrete (count) data, 0.3 mg/kg PO once daily for 28-days from P10
[11] = Generalized Linear Model on discrete (count) data, 1 mg/kg PO once daily for 28-days from P10
[12] = Kruskal-Wallis with Wilcoxon pairwise tests, 1 mg/kg PO once daily for 28-days from P10
[13] = exploratory ANOVA on log10 scale, 0.3 mg/kg PO once daily for 28-days from P10
[14] = exploratory ANOVA on log10 scale, 1 mg/kg PO once daily for 28-days from P10
[15] = ANOVA on log10 adjusted scale, 0.3 mg/kg IP once daily for 5-days from P21
[16] = Generalized Linear Model on discrete (count) data, 0.3 mg/kg IP once daily for 5-days from P21

Compound: Cc1nc(C#Cc2ccnc(Cl)c2)c(C)n1-c1ccc(OC(F)(F)F)cc1 [CTEP, reference compound]
- Frequency of animals with At least 1 Seizure [1]: 4
- Frequency of animals with No Seizures (seizure freedom) [1]: 11
- Percent of animals with At least 1 Seizure [1]: 26.7%
- Percent of animals with No Seizures (seizure freedom) [1]: 73.3%
- animals with Seizure Freedom over time (Kaplan-Meier, in words) [1]: more animals with Seizure Freedom for a longer duration
- Seizure per day, % Change compared to untreated group [2]: −79.05%
- Seizure per day, Geometric Mean [2]: 0.026
- Seizure per day, Ratio of Means compared to untreated group [2]: 0.21
- reduction of average seizure per day compared to the Untreated group [2]: 85%
- Odds Ratio of seizure freedom (vs Untreated) [1]: 8.25
- Probability of seizure freedom [1]: 0.73
- reduction of total seizure burden compared to the Untreated group (GLM on discrete (count) data, 0.3 mg/kg PO every other day for 28-days): 62%
- Seizure per day, % Change vs Untreated [3]: −23.56%
- Seizure per day, Geometric Mean [3]: 0.375
- Seizure per day, Ratio of Means vs Untreated [3]: 0.76
- Total Seizure Burden, % Change vs Untreated [3]: −62.47%
- Total Seizure Burden, Geometric Mean [3]: 2.53
- Total Seizure Burden, Ratio of Means vs Untreated [3]: 0.38
- seizure per day rates compared to the Untreated group (in words) [4]: decreased seizure per day rates
- total seizure burden compared to the Untreated group (in words) [4]: lower total seizure burden
- Total Seizure Burden, % Change compared to Untreated group [5]: −82.08%
- Total Seizure Burden, Geometric Mean [5]: 0.32
- Total Seizure Burden, Ratio of Means compared to Untreated group [5]: 0.18
- reduction of total seizure burden compared to the Untreated group [5]: 82%

Compound: Cc1nc(C#Cc2ccnc(Cl)c2)c(C)n1-c1ccc(F)cc1 [Compound I, 2-chloro-4-[1-(4-fluorophenyl)-2,5-dimethyl-1H-imidazol-4-ylethynyl]pyridine]
- Frequency of animals with At least 1 Seizure [6]: 10
- Frequency of animals with No Seizures (seizure freedom) [6]: 1
- Percent of animals with At least 1 Seizure [6]: 90.9%
- Percent of animals with No Seizures (seizure freedom) [6]: 9.1%
- Frequency of animals with At least 1 Seizure [7]: 3
- Frequency of animals with No Seizures (seizure freedom) [7]: 10
- Percent of animals with At least 1 Seizure [7]: 23.1%
- Percent of animals with No Seizures (seizure freedom) [7]: 76.9%
- animals with Seizure Freedom over time (Kaplan-Meier, in words) [7]: more animals with Seizure Freedom for a longer duration
- chance of seizure freedom (1 mg/kg PO once daily for 28-days from P10, 25% in the Untreated group): 77%
- Seizure per day, % Change compared to untreated group [8]: 183.96%
- Seizure per day, Geometric Mean [8]: 0.349
- Seizure per day, Ratio of Means compared to untreated group [8]: 2.84
- Seizure per day, % Change compared to untreated group [9]: −84.81%
- Seizure per day, Geometric Mean [9]: 0.019
- Seizure per day, Ratio of Means compared to untreated group [9]: 0.15
- reduction of average seizure per day compared to the Untreated group [9]: 79%
- Odds Ratio of seizure freedom (vs Untreated) [6]: 0.3
- Probability of seizure freedom [6]: 0.09
- Odds Ratio of seizure freedom (vs Untreated) [7]: 10
- Probability of seizure freedom [7]: 0.77
- reduction of total seizure burden compared to the Untreated group (GLM on discrete (count) data, 1 mg/kg PO once daily for 28-days from P10): 44%
- Seizure per day, % Change vs Untreated [10]: 85.38%
- Seizure per day, Geometric Mean [10]: 0.910
- Seizure per day, Ratio of Means vs Untreated [10]: 1.85
- Total Seizure Burden, % Change vs Untreated [10]: 87.21%
- Total Seizure Burden, Geometric Mean [10]: 12.64
- Total Seizure Burden, Ratio of Means vs Untreated [10]: 1.87
- Seizure per day, % Change vs Untreated [11]: −46.32%
- Seizure per day, Geometric Mean [11]: 0.263
- Seizure per day, Ratio of Means vs Untreated [11]: 0.54
- Total Seizure Burden, % Change vs Untreated [11]: −44.16%
- Total Seizure Burden, Geometric Mean [11]: 3.77
- Total Seizure Burden, Ratio of Means vs Untreated [11]: 0.56
- median time to first seizure [6]: 2 days
- seizure per day rates compared to the Untreated group (in words) [12]: decreased seizure per day rates
- total seizure burden compared to the Untreated group (in words) [12]: lower total seizure burden
- Total Seizure Burden, % Change compared to Untreated group [13]: 136.21%
- Total Seizure Burden, Geometric Mean [13]: 4.16
- Total Seizure Burden, Ratio of Means compared to Untreated group [13]: 2.36
- Total Seizure Burden, % Change compared to Untreated group [14]: −84.25%
- Total Seizure Burden, Geometric Mean [14]: 0.28
- Total Seizure Burden, Ratio of Means compared to Untreated group [14]: 0.16
- reduction of total seizure burden compared to the Untreated group [14]: 84%

Compound: CN(C(=O)c1ncc(C#Cc2cccc(F)c2)cn1)C(C)(C)C [RO6807794, reference compound]
- Seizure per day, % Change compared to untreated group [15]: 751.1%
- Seizure per day, Geometric Mean [15]: 1.046
- Seizure per day, Ratio of Means compared to untreated group [15]: 8.51
- seizure per day rates compared to the Untreated group (in words) (GLM on discrete (count) data, 0.3 mg/kg IP once daily for 5-days from P21): statistically significantly increased seizure per day rates
- Seizure per day, % Change vs Untreated [16]: 407.47%
- Seizure per day, Geometric Mean [16]: 2.490
- Seizure per day, Ratio of Means vs Untreated [16]: 5.07
- median time to first seizure (0.3 mg/kg IP once daily for 5-days from P21): 3 days
- seizure per day rates compared to the Untreated group (in words) (Kruskal-Wallis with Wilcoxon pairwise tests, 0.3 mg/kg IP once daily for 5-days from P21): increased seizure per day rates
